How the values were obtained:
[1] = molecular target: COX-1 (Homo sapiens, UniProt P23219); test: Stressgen StressXpress cyclooxygenase activity kit, COX-1; type: biochemical; details: for COX-1 activity (RLU): vehicle 4115 RLU
Protocol: (§1) The Stressgen StressXpress™ cyclooxygenases activity Kit provides a method to measure specifically cyclooxygenases COX-1 and COX-2 in a variety of biological fluids. The kit uses a specific chemiluminescent substrate (aromatic hydrocarbon molecule) to detect the peroxidative activity of COX enzymes. […] Light emission begins immediately and chemiluminescent signal (Relative Luminescence Units—RLU—is measured after 30 minutes (luminometer Tecan). The amount of light emitted is directly proportional to the COX activity.

[2] = system: HT 29 cells; test: PGE2 synthesis in HT29 cells treated with α-CH2-γ-butyrolactone with and without TNF-α; type: cell-based, human; details: for pg PGE2/ml of medium + TNF-α / PGE2 % of control − TNF-α / pg PGE2/ml of medium − TNF-α: 21 h; for pg PGE2/ml of medium + TNF-α / PGE2 % of control + TNF-α: TNF-α 10 ng/ml for 6 h; for PGE2 % of control − TNF-α / pg PGE2/ml of medium − TNF-α: without TNF-α; for PGE2 % of control + TNF-α: relative to methanol control without TNF-α (control + TNF-α = 730)
Protocol: To this end, cells were cultured and passed in Mc Coy's 5A medium supplemented with arachidonic acid ([…]) and bovine serum albumin (0.01%). Cells were treated by alpha-methylen-gamma-butyrolactone (dissolved in methanol) at the following doses: 15, 30, 60 microM or by solvent alone during 21 h including or not stimulation with TNF-alpha (10 ng/ml) for 6 h. PGE2 analysis was performed using an Elisa test on a medium sample.

[3] = molecular target: T1, COX-2 (Homo sapiens, UniProt P35354); test: Stressgen StressXpress cyclooxygenase activity kit, COX-2; type: biochemical
T1 sequence (P35354 18-604): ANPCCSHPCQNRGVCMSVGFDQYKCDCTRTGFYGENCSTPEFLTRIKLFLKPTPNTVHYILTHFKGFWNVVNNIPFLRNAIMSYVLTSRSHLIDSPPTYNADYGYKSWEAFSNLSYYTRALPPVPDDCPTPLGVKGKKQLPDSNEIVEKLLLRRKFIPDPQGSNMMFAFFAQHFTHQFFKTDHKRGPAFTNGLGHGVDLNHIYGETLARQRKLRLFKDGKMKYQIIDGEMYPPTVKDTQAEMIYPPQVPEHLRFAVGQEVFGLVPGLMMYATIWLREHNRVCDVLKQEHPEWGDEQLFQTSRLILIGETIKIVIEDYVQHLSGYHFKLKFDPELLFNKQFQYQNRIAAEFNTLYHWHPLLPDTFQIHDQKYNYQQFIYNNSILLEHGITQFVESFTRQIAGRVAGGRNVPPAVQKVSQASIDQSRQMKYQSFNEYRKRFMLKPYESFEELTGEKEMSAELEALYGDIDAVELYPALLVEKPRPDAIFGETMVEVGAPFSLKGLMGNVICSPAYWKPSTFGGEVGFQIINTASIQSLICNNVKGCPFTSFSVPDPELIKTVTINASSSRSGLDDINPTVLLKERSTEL
Protocol: as §1

[4] = system: COX-2 expression in HT29 cells; test: Western blot of COX-2 expression in HT 29 cells; type: cell-based, human; details: FIG. 1
Protocol: Western blot analysis: cells lysate were prepared by treating HT 29 cells (treated as above for PGE-2 determinations, i.e. in presence or absence of TNF-alpha and with or without α-CH2-γ-butyrolactone) with lysis buffer (150 mM NaCl, 10 mM Tris HCl pH 8, 1% Tween 20, EDTA pH 8 1 mM, proteases inhibitors, PEFA, (Merck), DETC (Aldrich)). Lysates were sonicated for 5 s, and centrifugated at 10000 g for 5 min. Proteins concentration were estimated by the Bradford method which was standardized using bovine serum albumine.
Whole cell extracts (25 μg) were boiled in Laemmli sample buffer and resolved by SDS-PAGE on 10% gel using the discontinuous polyacrylamide gel system. Non specific binding sites were blocked by incubating the membrane in 5% dried milk phosphate buffered saline solution containing 0.1% of tween-20 overnight at 4° C. Blots were hybridized in a 1:1000 dilution of a goat polyclonal anti COX-2 and also COX-1 antibody (C-20, Santa Cruz Biotechnology) in 5% milk PBS for 1 h at room temperature followed by 1 h of washing in 1% milk PBS. Subsequently, blots were probed with a secondary donkey anti-goat antibody horseradish peroxidase conjugated. After washing for 1 h, the complex was detected using ECL Western blotting reagents (Amersham)

Sequence of COX-1 (P23219 24-599): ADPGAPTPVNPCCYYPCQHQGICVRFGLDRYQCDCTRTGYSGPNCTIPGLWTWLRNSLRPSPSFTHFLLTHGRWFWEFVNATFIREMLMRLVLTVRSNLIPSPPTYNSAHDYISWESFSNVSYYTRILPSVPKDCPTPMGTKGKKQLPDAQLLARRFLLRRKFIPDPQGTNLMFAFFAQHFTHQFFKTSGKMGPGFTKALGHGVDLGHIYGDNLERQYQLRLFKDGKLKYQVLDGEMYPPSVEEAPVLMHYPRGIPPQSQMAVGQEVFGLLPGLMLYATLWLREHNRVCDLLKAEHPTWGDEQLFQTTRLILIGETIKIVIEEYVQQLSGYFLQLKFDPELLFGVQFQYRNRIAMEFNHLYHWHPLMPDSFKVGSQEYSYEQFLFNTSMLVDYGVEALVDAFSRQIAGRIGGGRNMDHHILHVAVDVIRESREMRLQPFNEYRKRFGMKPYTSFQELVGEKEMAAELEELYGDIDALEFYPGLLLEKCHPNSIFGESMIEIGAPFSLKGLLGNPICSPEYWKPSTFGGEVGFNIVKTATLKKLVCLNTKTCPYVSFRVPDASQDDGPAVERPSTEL

Row | SMILES | COX-1 activity % of control ([1]; 1 mM) | COX-1 activity (RLU) ([1]; 1 mM) | pg PGE2/ml of medium + TNF-α ([2]; 15 μM) [pg/mL] | PGE2 % of control − TNF-α ([2]; 15 μM) | pg PGE2/ml of medium − TNF-α ([2]; 15 μM) [pg/mL] | PGE2 % of control + TNF-α ([2]; 15 μM) | pg PGE2/ml of medium + TNF-α ([2]; 30 μM) [pg/mL] | PGE2 % of control − TNF-α ([2]; 30 μM) | pg PGE2/ml of medium − TNF-α ([2]; 30 μM) [pg/mL] | PGE2 % of control + TNF-α ([2]; 30 μM) | pg PGE2/ml of medium + TNF-α ([2]; 60 μM) [pg/mL] | PGE2 % of control − TNF-α ([2]; 60 μM) | pg PGE2/ml of medium − TNF-α ([2]; 60 μM) [pg/mL] | PGE2 % of control + TNF-α ([2]; 60 μM) | COX-1 activity % of control ([1]; 40 μM) | COX-1 activity (RLU) ([1]; 40 μM) | COX-2 activity % of control ([3]; 40 μM) | COX-2 activity (RLU) ([3]; 40 μM, vehicle 26450 RLU) | inhibition of COX-2 activity (in words) ([3]; cyclooxygenase activity kit) | COX-2 expression (Western blot, in words) [4]
1 | CS(=O)(=O)Nc1ccc([N+](=O)[O-])cc1OC1CCCCC1 [NS-398, reference compound] | 99 % of control | 4063 |  |  |  |  |  |  |  |  |  |  |  |  |  |  |  |  |  | 
2 | C=C1CCOC1=O [α-CH2-γ-butyrolactone, α-methylene-γ-butyrolactone] |  |  | 13286 | 108 % of control | 2814 | 512 % of control | 9349 | 76 % of control | 1970 | 360 % of control | 1310 | 14 % of control | 1144 | 50 % of control | 117 % of control | 4807 | 49 % of control | 12823 | inhibit specifically and with high potency COX-2 activity | inhibition of COX-2 expression
